Experimental data: PubChem BioAssay AID256 (DTP/NCI, 2004)
Values joined by “and” are separate entries in the source; they are usually repeats but may differ in a detail not shown here. Equal values may be shown once. Inconclusive results and toxic doses are left out. Residues, ends and D or L forms follow the SMILES beside them.

System: CD2F1 mice, L1210 leukemia ip, survival T/C
Assay: NCI In Vivo Anticancer Drug Screen. Data for tumor model L1210 Leukemia (intraperitoneal) in CD2F1 (CDF1) mice
Details: higher = longer survival
Procedure, shortened: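 Activity against a transplanted murine tumor was judged by comparing the compound group with a vehicle group. The outcome in the treated animals was divided by that in the controls.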

[1] = endpoint: mean survival time, dose: 25.0 mg/kg/injection, schedule: Q01DX009 (ip), vehicle: water
[2] = endpoint: mean survival time, dose: 100.0 mg/kg/injection, schedule: Q04DX003 (ip), vehicle: saline with Tween-80
[3] = endpoint: mean survival time, dose: 50.0 mg/kg/injection, schedule: Q01DX001 (ip), vehicle: saline
[4] = endpoint: mean survival time, dose: 100.0 mg/kg/injection, schedule: Q01DX001 (ip), vehicle: saline
[5] = endpoint: mean survival time, dose: 200.0 mg/kg/injection, schedule: Q01DX001 (ip), vehicle: saline
[6] = endpoint: mean survival time, dose: 100.0 mg/kg/injection, schedule: Q01DX001 (ip), vehicle: saline with Tween-80
[7] = endpoint: mean survival time, dose: 100.0 mg/kg/injection, schedule: Q01DX009 (ip), vehicle: saline with Tween-80
[8] = endpoint: mean survival time, dose: 200.0 mg/kg/injection, schedule: Q01DX001 (ip), vehicle: saline with Tween-80
[9] = endpoint: mean survival time, dose: 200.0 mg/kg/injection, schedule: Q01DX009 (ip), vehicle: saline with Tween-80
[10] = endpoint: mean survival time, dose: 400.0 mg/kg/injection, schedule: Q01DX009 (ip), vehicle: saline with Tween-80
[11] = endpoint: mean survival time, dose: 12.5 mg/kg/injection, schedule: Q01DX009 (ip), vehicle: saline with Tween-80
[12] = endpoint: mean survival time, dose: 25.0 mg/kg/injection, schedule: Q01DX009 (ip), vehicle: saline with Tween-80
[13] = endpoint: mean survival time, dose: 50.0 mg/kg/injection, schedule: Q01DX009 (ip), vehicle: water
[14] = endpoint: mean survival time, dose: 100.0 mg/kg/injection, schedule: Q01DX009 (ip), vehicle: water
[15] = endpoint: mean survival time, dose: 100.0 mg/kg/injection, schedule: Q04DX003 (ip), vehicle: saline
[16] = endpoint: mean survival time, dose: 200.0 mg/kg/injection, schedule: Q04DX003 (ip), vehicle: saline
[17] = endpoint: mean survival time, dose: 50.0 mg/kg/injection, schedule: Q01DX009 (ip), vehicle: saline
[18] = endpoint: mean survival time, dose: 100.0 mg/kg/injection, schedule: Q01DX009 (ip), vehicle: saline
[19] = endpoint: mean survival time, dose: 200.0 mg/kg/injection, schedule: Q01DX009 (ip), vehicle: saline

Cc1ccc(C2CC3c4ccccc4C2C2CCCCN32)cc1 (stereo not given)
T/C (endpoint: mean survival time, dose: 1.56 mg/kg/injection, schedule: Q01DX009 (ip), vehicle: water): 88 % of control and 86 % of control | T/C (endpoint: mean survival time, dose: 3.13 mg/kg/injection, schedule: Q01DX009 (ip), vehicle: water): 86 % of control | T/C (endpoint: mean survival time, dose: 6.25 mg/kg/injection, schedule: Q01DX009 (ip), vehicle: water): 88 % of control | T/C (endpoint: mean survival time, dose: 12.5 mg/kg/injection, schedule: Q01DX009 (ip), vehicle: water): 88 % of control and 93 % of control | T/C [1]: 89 % of control and 102 % of control

COc1ccc(CCNC2C3CC4CC(C3)CC2C4)cc1OC (stereo not given)
T/C (endpoint: mean survival time, dose: 25.0 mg/kg/injection, schedule: Q04DX003 (ip), vehicle: saline with Tween-80): 112 % of control | T/C (endpoint: mean survival time, dose: 50.0 mg/kg/injection, schedule: Q04DX003 (ip), vehicle: saline with Tween-80): 101 % of control | T/C [2]: 101 % of control

CC/C1=C/N(C=O)CCc2c([nH]c3ccccc23)C(C(=O)OC)(c2cc3c(cc2OC)N(C)C2C(O)(C(=O)OC)C(OC(C)=O)C4(CC)C=CCN5CCC32C54)CC(=O)C1 (stereo not given)
T/C [3]: 107 % of control | T/C [4]: 102 % of control | T/C [5]: 96 % of control

CCOC(=O)C(=NN)C(=O)OCC
T/C [6]: 97 % of control | T/C [7]: 96 % of control | T/C [8]: 105 % of control | T/C [9]: 101 % of control | T/C (endpoint: mean survival time, dose: 400.0 mg/kg/injection, schedule: Q01DX001 (ip), vehicle: saline with Tween-80): 102 % of control | T/C [10]: 93 % of control

COc1ccc(NC(=O)C(c2ccccc2)c2ccccc2)cc1
T/C [7]: 105 % of control | T/C [9]: 102 % of control | T/C [10]: 92 % of control

O=C(N/N=C/c1ccc2c(c1)OCO2)c1cccc(C(F)(F)F)c1
T/C [11]: 95 % of control | T/C [12]: 91 % of control | T/C (endpoint: mean survival time, dose: 50.0 mg/kg/injection, schedule: Q01DX009 (ip), vehicle: saline with Tween-80): 91 % of control and 104 % of control | T/C [9]: 89 % of control

CC(C)C(NC(=O)C(NC(=O)C(CCCN=C(N)N)NC(=O)C(N)CCCCN)C(C)C)C(N)=O (stereo not given) (H-KRVV-NH2; configuration not given here)
T/C [1]: 95 % of control | T/C [13]: 100 % of control | T/C [14]: 108 % of control | T/C (endpoint: mean survival time, dose: 200.0 mg/kg/injection, schedule: Q01DX009 (ip), vehicle: water): 103 % of control

N=C(N)c1ccc(N)cc1
T/C [15]: 103 % of control | T/C [16]: 101 % of control

CN(C)c1ccc(/C=C\C(=O)c2ccccc2)cc1
T/C [17]: 109 % of control | T/C [18]: 97 % of control | T/C [19]: 106 % of control

CCSc1ncc(Br)c(Sc2nc(N)nc3nc[nH]c23)n1
T/C (endpoint: mean survival time, dose: 6.25 mg/kg/injection, schedule: Q01DX Z (ip), vehicle: carboxymethylcellulose (CMC)): 154 % of control | T/C (endpoint: mean survival time, dose: 12.5 mg/kg/injection, schedule: Q01DX Z (ip), vehicle: carboxymethylcellulose (CMC)): 100 % of control | T/C (endpoint: mean survival time, dose: 25.0 mg/kg/injection, schedule: Q01DX Z (ip), vehicle: carboxymethylcellulose (CMC)): 98 % of control | T/C (endpoint: mean survival time, dose: 50.0 mg/kg/injection, schedule: Q01DX Z (ip), vehicle: carboxymethylcellulose (CMC)): 87 % of control

CC(C)O.CC(C)O.CC(C)O.[La]
T/C [15]: 97 % of control | T/C [16]: 87 % of control | T/C (endpoint: mean survival time, dose: 400.0 mg/kg/injection, schedule: Q04DX003 (ip), vehicle: saline): 89 % of control

CCCCN(Cc1ccccc1)CC(O)C[NH-].O=C(O)CC(=O)O.[Pt+2] (stereo not given)
T/C (endpoint: median survival time, dose: 10.0 mg/kg/injection, schedule: Q04DX003 (ip), vehicle: water): 98 % of control | T/C (endpoint: median survival time, dose: 20.0 mg/kg/injection, schedule: Q04DX003 (ip), vehicle: water): 105 % of control | T/C (endpoint: median survival time, dose: 27.25 mg/kg/injection, schedule: Q04DX003 (ip), vehicle: water): 101 % of control | T/C (endpoint: median survival time, dose: 40.0 mg/kg/injection, schedule: Q04DX003 (ip), vehicle: water): 109 % of control | T/C (endpoint: median survival time, dose: 54.5 mg/kg/injection, schedule: Q04DX003 (ip), vehicle: water): 101 % of control | T/C (endpoint: median survival time, dose: 80.0 mg/kg/injection, schedule: Q04DX003 (ip), vehicle: water): 105 % of control | T/C (endpoint: median survival time, dose: 109.0 mg/kg/injection, schedule: Q04DX003 (ip), vehicle: water): 108 % of control

CCCCCCCCCCCC[S+](C)C
T/C (endpoint: mean survival time, dose: 10.0 mg/kg/injection, schedule: Q04DX003 (ip), vehicle: Klucel (hydroxypropylcellulose) (HPC)): 107 % of control | T/C (endpoint: mean survival time, dose: 20.0 mg/kg/injection, schedule: Q04DX003 (ip), vehicle: Klucel (hydroxypropylcellulose) (HPC)): 103 % of control | T/C (endpoint: mean survival time, dose: 40.0 mg/kg/injection, schedule: Q04DX003 (ip), vehicle: Klucel (hydroxypropylcellulose) (HPC)): 98 % of control

CCCOCC(O)CNCCN (stereo not given)
T/C (endpoint: mean survival time, dose: 12.5 mg/kg/injection, schedule: Q01DX009 (ip), vehicle: saline): 96 % of control and 101 % of control | T/C (endpoint: mean survival time, dose: 25.0 mg/kg/injection, schedule: Q01DX009 (ip), vehicle: saline): 94 % of control and 98 % of control | T/C [17]: 93 % of control and 94 % of control | T/C [18]: 93 % of control and 96 % of control

Nc1[nH]c(=O)ncc1C(=O)NC(CO)C(=O)O (stereo not given)
T/C (endpoint: mean survival time, dose: 6.25 mg/kg/injection, schedule: Q01DX009 (ip), vehicle: saline with Tween-80): 100 % of control | T/C [11]: 102 % of control | T/C [12]: 104 % of control

O=c1c2c([nH]c3ccccc13)CSC2
T/C [2]: 92 % of control | T/C (endpoint: mean survival time, dose: 200.0 mg/kg/injection, schedule: Q04DX003 (ip), vehicle: saline with Tween-80): 87 % of control | T/C (endpoint: mean survival time, dose: 400.0 mg/kg/injection, schedule: Q04DX003 (ip), vehicle: saline with Tween-80): 94 % of control

CCCCOCC(C)O (stereo not given)
T/C [18]: 97 % of control | T/C [19]: 101 % of control | T/C (endpoint: mean survival time, dose: 400.0 mg/kg/injection, schedule: Q01DX009 (ip), vehicle: saline): 100 % of control

COc1cc2cnccc2cc1O
T/C [1]: 95 % of control | T/C [13]: 101 % of control | T/C [14]: 96 % of control

O=C1OC(=O)C2C1C1(c3ccccc3)OC2(c2ccccc2)c2ccccc21 (stereo not given)
T/C (endpoint: mean survival time, dose: 50.0 mg/kg/injection, schedule: Q01DX001 (ip), vehicle: saline with Tween-80): 100 % of control | T/C [6]: 100 % of control | T/C [8]: 100 % of control

O=C(OCC1OCOC1C1OCOC1COC(=O)c1ccccc1)c1ccccc1 (stereo not given)
T/C (endpoint: mean survival time, dose: 100.0 mg/kg/injection, schedule: Q04DX003 (ip), vehicle: Klucel (hydroxypropylcellulose) (HPC)): 102 % of control | T/C (endpoint: mean survival time, dose: 200.0 mg/kg/injection, schedule: Q04DX003 (ip), vehicle: Klucel (hydroxypropylcellulose) (HPC)): 97 % of control | T/C (endpoint: mean survival time, dose: 400.0 mg/kg/injection, schedule: Q04DX003 (ip), vehicle: Klucel (hydroxypropylcellulose) (HPC)): 91 % of control

CNC(=O)c1cccc2ccccc12
T/C [3]: 103 % of control | T/C [4]: 100 % of control | T/C [5]: 97 % of control | T/C (endpoint: mean survival time, dose: 400.0 mg/kg/injection, schedule: Q01DX001 (ip), vehicle: saline): 95 % of control

CC(C)(C)c1cc(N)cc(C(C)(C)C)c1O
T/C (endpoint: mean survival time, dose: 50.0 mg/kg/injection, schedule: Q04DX002 (ip), vehicle: saline with Tween-80): 91 % of control | T/C (endpoint: mean survival time, dose: 100.0 mg/kg/injection, schedule: Q04DX002 (ip), vehicle: saline with Tween-80): 98 % of control | T/C (endpoint: mean survival time, dose: 200.0 mg/kg/injection, schedule: Q04DX002 (ip), vehicle: saline with Tween-80): 98 % of control

O=S1(=O)CC2(C1)CS(=O)(=O)C2
T/C [6]: 103 % of control | T/C [8]: 90 % of control

CC(C)([NH-])C[NH-].[Cl][Pt+2][Cl]
T/C (endpoint: median survival time, dose: 10.0 mg/kg/injection, schedule: Q04DX003 (ip), vehicle: saline with Tween-80): 98 % of control | T/C (endpoint: median survival time, dose: 20.0 mg/kg/injection, schedule: Q04DX003 (ip), vehicle: saline with Tween-80): 95 % of control | T/C (endpoint: median survival time, dose: 40.0 mg/kg/injection, schedule: Q04DX003 (ip), vehicle: saline with Tween-80): 102 % of control | T/C (endpoint: median survival time, dose: 80.0 mg/kg/injection, schedule: Q04DX003 (ip), vehicle: saline with Tween-80): 103 % of control and 112 % of control | T/C (endpoint: median survival time, dose: 160.0 mg/kg/injection, schedule: Q04DX003 (ip), vehicle: saline with Tween-80): 117 % of control

[CH3][Sn]1([CH3])[O]C2C(CO)OC(n3cnc4c(=O)[nH]c(N)nc43)C2[O]1 (stereo not given)
T/C (endpoint: mean survival time, dose: 12.5 mg/kg/injection, schedule: Q01DX005 (ip), vehicle: other): 98 % of control | T/C (endpoint: mean survival time, dose: 25.0 mg/kg/injection, schedule: Q01DX005 (ip), vehicle: other): 101 % of control | T/C (endpoint: mean survival time, dose: 50.0 mg/kg/injection, schedule: Q01DX005 (ip), vehicle: other): 102 % of control | T/C (endpoint: mean survival time, dose: 100.0 mg/kg/injection, schedule: Q01DX005 (ip), vehicle: other): 93 % of control
